According to patent EP0626016B1, “[…] […]” (BRITISH TECHNOLOGY GROUP LIMITED, priority 1992, dated 1993):
Read-outs that look alike come from different tables or passages of the source.

Molecular target: T1, HRP Type VIA (Armoracia rusticana, UniProt P00433)
T1 sequence (P00433 31-338): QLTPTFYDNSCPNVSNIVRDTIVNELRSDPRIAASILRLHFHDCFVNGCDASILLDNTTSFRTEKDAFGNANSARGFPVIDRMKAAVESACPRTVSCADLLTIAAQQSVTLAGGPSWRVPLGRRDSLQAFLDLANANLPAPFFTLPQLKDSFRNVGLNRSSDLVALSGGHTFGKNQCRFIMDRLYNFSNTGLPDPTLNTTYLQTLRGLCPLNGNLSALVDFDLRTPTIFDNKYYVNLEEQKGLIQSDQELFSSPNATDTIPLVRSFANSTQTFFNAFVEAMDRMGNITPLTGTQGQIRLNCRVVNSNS
Conditions: for (d) Signal: Background: ratio (control = with no enhancer): control value in brackets not reported

Compound	(a) Decrease in background (without HRP with test cpd.) (0.01 mg/ml, 10µl test compound)	(b) Increase in signal (with HRP, with test cpd.) (0.01 mg/ml, 10µl test compound)	(c) Increase in signal: background ratio (0.01 mg/ml, 10µl test compound)	(a) Decrease in background (without HRP with test cpd.) (0.1 mg/ml, 10µl test compound)	(b) Increase in signal (with HRP, with test cpd.) (0.1 mg/ml, 10µl test compound)	(c) Increase in signal: background ratio (0.1 mg/ml, 10µl test compound)	(a) Decrease in background (without HRP with test cpd.) (1 mg/ml, 10µl test compound)	(b) Increase in signal (with HRP, with test cpd.) (1 mg/ml, 10µl test compound)	(c) Increase in signal: background ratio (1 mg/ml, 10µl test compound)	(a) Decrease in background (without HRP with test cpd.)	(b) Increase in signal (with HRP, with test cpd.)	(c) Increase in signal: background ratio	(d) Signal: Background: ratio (control = with no enhancer) (0.01 mg/ml, 10µl test compound)	(d) Signal: Background: ratio (control = with no enhancer) (0.1 mg/ml, 10µl test compound)	(d) Signal: Background: ratio (control = with no enhancer) (1 mg/ml, 10µl test compound)
2-benzimidazolylphenylboronic acid [Compound 1046]	Y	N	N (N = no)	Y	N	N (N = no)	Y	N	N (N = no)	–	–	–	–	–	–
C[Si](C)(C)c1ccc(B(O)O)cc1 [Compound 1001, 4-(trimethylsilyl) benzeneboronic acid]	–	–	–	–	–	–	–	–	–	Y	N and Y	Y (key: Column (c) shows whether there was an increase in the signal:background ratio by over 25% of the control value (Y = yes; N = no)	–	–	–
OB(O)c1cccc2ccccc12 [Compound 1002, 1-naphthaleneboronic acid]	Y	N	N (N = no)	Y	N	Y (Column (c) shows whether there was an increase in the signal:background ratio by over 25% of the control value (Y = yes)	Y	N	N (N = no)	–	–	–	2.5	3.4	0.7 (2.3)
COc1ccc(Br)cc1B(O)O [Compound 1003, 5-bromo-2-methoxybenzeneboronic acid]	Y	N	Y (Column (c) shows whether there was an increase in the signal:background ratio by over 25% of the control value (Y = yes)	Y	N	Y (Column (c) shows whether there was an increase in the signal:background ratio by over 25% of the control value (Y = yes)	Y	N	N (N = no)	–	–	–	8.6	12.1	2.6 (2.3)
OB(O)c1ccccc1-c1ccccc1 [Compound 1004, 2-biphenylboronic acid]	Y	N	N (N = no)	Y	N	N (N = no)	Y	N	N (N = no)	–	–	–	1.9	2.2	1.7 (2.3)
OB(O)c1cc(N=Nc2cccc(C(F)(F)F)c2)ccc1O [Compound 1005]	N	Y	Y (Column (c) shows whether there was an increase in the signal:background ratio by over 25% of the control value (Y = yes)	N	Y	Y (Column (c) shows whether there was an increase in the signal:background ratio by over 25% of the control value (Y = yes)	Y	N	N (N = no)	–	–	–	2.7	2.9	2.4 (2.1)
OB(O)c1ccc2cc(O)ccc2c1 [Compound 1006, 6-hydroxy-2-naphthaleneboronic acid]	Y	N	Y (Column (c) shows whether there was an increase in the signal:background ratio by over 25% of the control value (Y = yes)	Y	N	N (N = no)	Y	N	N (N = no)	–	–	–	5.8	1.5	0.3 (1.8)
OB(O)c1cccc2c1Sc1ccccc1S2 [Compound 1007, 1-thianthreneboronic acid]	Y	N	N (N = no)	Y	N	N (N = no)	Y	N	N (N = no)	–	–	–	2.1	2.5	1.8 (2.1)
OB(O)c1cccc2c1oc1ccccc12 [Compound 1008, 4-dibenzofuranboronic acid]	Y	N	N (N = no)	Y	N	N (N = no)	Y	N	N (N = no)	–	–	–	1.6	1.5	1.3 (2.5)
Cc1ccccc1B(O)O [Compound 1009, 2-tolueneboronic acid]	Y	N	N (N = no)	Y	N	Y (Column (c) shows whether there was an increase in the signal:background ratio by over 25% of the control value (Y = yes)	Y	N	N (N = no)	–	–	–	1.9	2.5	0.6 (1.8)
OB(O)c1ccc(Oc2ccccc2)cc1 [Compound 1010, 4-(phenoxy)benzeneboronic acid]	Y	N	N (N = no)	Y	N	Y (Column (c) shows whether there was an increase in the signal:background ratio by over 25% of the control value (Y = yes)	Y	N	Y (Column (c) shows whether there was an increase in the signal:background ratio by over 25% of the control value (Y = yes)	–	–	–	3.0	4.6	5.0 (2.5)
c1ccc(B2OCCCO2)cc1 [Compound 1012, 2-phenyl-1,3,2-dioxaborinane]	N	Y	N (N = no)	N	N	N (N = no)	Y	N	Y (Column (c) shows whether there was an increase in the signal:background ratio by over 25% of the control value (Y = yes)	–	–	–	2.2	2.2	17.1 (2.5)
c1ccc([B-](c2ccccc2)(c2ccccc2)c2ccccc2)cc1 [Compound 1016, tetraphenylboron sodium]	–	–	–	–	–	–	–	–	–	Y	N	N (key: column (a) shows whether the test compound lowered the light output from the luminol-hydrogen peroxide solution (Y = yes; N = no)	–	–	–
OCC(CO)(CO)COB(O)O [Compound 1017, pentaerythritol borate]	Y	N	N (N = no)	Y	Y	Y (Column (c) shows whether there was an increase in the signal:background ratio by over 25% of the control value (Y = yes)	Y	N	N (N = no)	–	–	–	1.8	2.5	1.8 (1.8)
